Experiments:
[1] = system: MV4-11 human acute myeloid leukemia cell with FLT3-ITD mutation; assay: MV4-11 cell proliferation assay (CellTiter 96); assay type: cell-based; settings: Homo sapiens, MV4-11, 72 h, MV4-11 cells, 72 hours treatment, CellTiter96; read-out: anti-proliferation activity MV4-11 (FLT3-ITD), IC50 ranking
How it was run: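 Cells seeded at 6500/well in IMDM with 10% heat-inactivated FBS, left overnight at 37 °C, 5% CO2, then exposed to increasing compound concentrations for 72 h. Viability read as absorbance at 490 nm after 2–4 h with CellTiter96 AQueous One reagent.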

MET kinase = target: T1, MET kinase (Homo sapiens, UniProt P08581); assay: MET kinase assay (AlphaScreen, counter screen); assay type: biochemical; settings: read-out: Ranking of IC50 values, MET
T1 construct: purchased SignalChem
How it was run: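 IC50 came from duplicate serial dilutions, with AlphaScreen detection of phosphorylated biotin-poly(Glu4:Tyr1). The reaction used 1 ng recombinant MET, 10 µM ATP […], and MOPS pH 7.0/MgCl2 buffer, ran 45 min at 30 °C, and was quenched with EDTA.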

[2] = system: HCC827 NSCLC cell with EGFR exon 19 deletion mutation; assay: HCC827 cell proliferation assay (counter screen); assay type: cell-based, human; settings: Homo sapiens, HCC827 cells, 72 hours treatment, CellTiter96, read-out: anti-proliferation activity HCC827 EGFR Exon19 del, IC50 ranking
How it was run: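 HCC827 cells (EGFR exon 19 deletion) were seeded at 8000 cells/well in RPMI1640 with 10% FBS, then exposed to increasing compound concentrations for 72 h at 37 °C. Viability was read by CellTiter96 AQueous One (MTS), absorbance 490 nm after 2–4 h.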

[3] = system: A375 melanoma cell with BRAF V600E mutation; assay: A375 cell proliferation assay (counter screen); assay type: cell-based, human; settings: Homo sapiens, A-375, A375 cells, 72 hours treatment, CellTiter96, read-out: anti-proliferation activity A375 BRAF V600E, IC50 ranking
How it was run: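 A375 cells (BRAF V600E) seeded at 2000 cells/well in DMEM with 10% FBS, settled overnight at 37° C, 5% CO2, then exposed to increasing compound concentrations for 72 hours. Viability read by MTS-type CellTiter96 AQueous reagent, absorbance at 490 nm after 2–4 hours.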

[4] = system: THP-1 human acute monocytic leukemia cell with NRAS G12D mutation; assay: THP-1 cell proliferation assay (counter screen); assay type: cell-based; settings: Homo sapiens, THP-1 cells, 72 hours treatment, CellTiter96, read-out: anti-proliferation activity THP-1 NRAS N12D, IC50 ranking
How it was run: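 Viability measured as 490 nm absorbance after 2–4 h with CellTiter96 AQueous One reagent, following 72 h treatment with rising compound concentrations. THP-1 cells, 5000/well, grown in RPMI 1640 with 10% FBS and 0.05 mM 2-mercaptoethanol at 37° C, 5% CO2, plated overnight before dosing.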

PDGFRα kinase = target: T2, PDGFRα kinase (Homo sapiens, UniProt P16234); assay: PDGFRα kinase assay (AlphaScreen); assay type: biochemical; settings: read-out: Ranking of IC50 values, PDGFRα
T2 construct: purchased SignalChem
How it was run: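 IC50 values came from duplicate serial dilutions, with product read by AlphaScreen. The reaction ran 30 min at 30 °C, then EDTA stop: 1.5 ng recombinant enzyme, biotin-poly(Glu4:Tyr1) substrate, 10 μM ATP, 10 mM MOPS pH 7.0, 10 mM MgCl2.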

T1 sequence (P08581 25-1390): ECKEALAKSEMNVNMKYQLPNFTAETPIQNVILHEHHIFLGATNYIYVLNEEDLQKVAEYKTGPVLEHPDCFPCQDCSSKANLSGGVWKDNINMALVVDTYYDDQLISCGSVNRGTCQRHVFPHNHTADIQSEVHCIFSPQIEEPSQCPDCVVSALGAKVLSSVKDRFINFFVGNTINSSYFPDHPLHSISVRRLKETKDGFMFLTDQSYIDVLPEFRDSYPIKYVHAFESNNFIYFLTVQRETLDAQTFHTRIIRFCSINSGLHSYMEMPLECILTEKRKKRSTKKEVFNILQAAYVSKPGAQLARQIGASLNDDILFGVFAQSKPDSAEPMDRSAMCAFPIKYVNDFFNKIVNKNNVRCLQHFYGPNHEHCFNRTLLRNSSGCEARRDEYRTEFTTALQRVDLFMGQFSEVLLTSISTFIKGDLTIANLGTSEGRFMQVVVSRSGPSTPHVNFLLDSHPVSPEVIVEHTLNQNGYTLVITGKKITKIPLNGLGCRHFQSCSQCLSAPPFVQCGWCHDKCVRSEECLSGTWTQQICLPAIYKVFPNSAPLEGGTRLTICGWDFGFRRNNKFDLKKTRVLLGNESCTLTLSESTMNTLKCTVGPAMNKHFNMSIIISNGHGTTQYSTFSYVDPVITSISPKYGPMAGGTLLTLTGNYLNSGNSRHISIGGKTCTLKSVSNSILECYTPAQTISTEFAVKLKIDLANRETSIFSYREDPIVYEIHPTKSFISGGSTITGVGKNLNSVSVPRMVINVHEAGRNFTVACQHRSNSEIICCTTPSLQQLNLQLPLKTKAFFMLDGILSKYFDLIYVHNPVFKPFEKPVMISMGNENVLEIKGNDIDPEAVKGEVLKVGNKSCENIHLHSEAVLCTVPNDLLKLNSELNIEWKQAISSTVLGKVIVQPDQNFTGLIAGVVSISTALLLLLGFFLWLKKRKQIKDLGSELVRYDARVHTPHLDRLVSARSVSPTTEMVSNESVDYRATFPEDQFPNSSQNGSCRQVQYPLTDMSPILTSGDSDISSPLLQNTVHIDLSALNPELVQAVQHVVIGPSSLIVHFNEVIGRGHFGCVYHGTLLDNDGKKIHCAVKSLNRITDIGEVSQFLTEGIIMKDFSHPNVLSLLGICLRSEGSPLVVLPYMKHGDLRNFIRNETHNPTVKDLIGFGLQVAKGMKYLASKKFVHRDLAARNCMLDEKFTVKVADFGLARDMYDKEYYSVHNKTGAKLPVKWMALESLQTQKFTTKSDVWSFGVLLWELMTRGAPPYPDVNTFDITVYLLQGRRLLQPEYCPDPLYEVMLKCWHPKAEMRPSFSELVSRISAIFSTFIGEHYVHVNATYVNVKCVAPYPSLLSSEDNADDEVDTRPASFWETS
T2 sequence (P16234 24-1089): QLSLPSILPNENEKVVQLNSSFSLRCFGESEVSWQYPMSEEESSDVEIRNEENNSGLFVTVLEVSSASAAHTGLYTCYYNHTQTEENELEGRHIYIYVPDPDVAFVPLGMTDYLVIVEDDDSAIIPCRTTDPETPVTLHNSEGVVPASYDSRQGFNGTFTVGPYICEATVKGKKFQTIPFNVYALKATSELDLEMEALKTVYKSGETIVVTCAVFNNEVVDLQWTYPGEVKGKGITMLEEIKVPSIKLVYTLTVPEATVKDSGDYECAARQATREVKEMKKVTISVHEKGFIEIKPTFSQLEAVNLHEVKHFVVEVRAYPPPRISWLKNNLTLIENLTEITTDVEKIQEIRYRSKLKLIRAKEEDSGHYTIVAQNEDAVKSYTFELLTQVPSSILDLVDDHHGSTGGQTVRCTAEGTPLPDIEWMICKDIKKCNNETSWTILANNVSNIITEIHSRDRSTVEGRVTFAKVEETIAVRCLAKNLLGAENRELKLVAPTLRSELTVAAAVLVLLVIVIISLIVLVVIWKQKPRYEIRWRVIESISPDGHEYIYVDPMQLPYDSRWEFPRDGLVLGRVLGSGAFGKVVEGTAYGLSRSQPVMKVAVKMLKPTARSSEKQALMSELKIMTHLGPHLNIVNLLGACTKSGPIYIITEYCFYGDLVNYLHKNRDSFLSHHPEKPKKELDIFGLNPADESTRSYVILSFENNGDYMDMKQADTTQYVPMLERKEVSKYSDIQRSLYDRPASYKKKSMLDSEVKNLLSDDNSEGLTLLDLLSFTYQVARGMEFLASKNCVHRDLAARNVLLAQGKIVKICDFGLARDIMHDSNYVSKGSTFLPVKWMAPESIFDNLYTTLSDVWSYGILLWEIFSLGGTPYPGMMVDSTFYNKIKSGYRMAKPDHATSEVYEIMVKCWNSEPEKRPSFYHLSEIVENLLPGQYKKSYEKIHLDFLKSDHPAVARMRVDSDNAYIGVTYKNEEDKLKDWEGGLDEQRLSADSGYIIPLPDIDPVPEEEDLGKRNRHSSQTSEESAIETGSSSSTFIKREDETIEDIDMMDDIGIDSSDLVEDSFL

| SMILES | IC50 [1] | IC50 (MET kinase) | IC50 [2] | IC50 [3] | IC50 [4] | IC50 (PDGFRα kinase) |
| --- | --- | --- | --- | --- | --- | --- |
| Cn1ncc2ccc(-c3n[nH]c4c3Cc3sc(-c5ccc(N6CCOCC6)nc5)cc3-4)cc21 [Compound 82, 4-(5-(3-(1-methyl-1H-indazol-6-yl)-1,4-dihydro-thieno[2′,3′:4,5]cyclopenta [1,2-c]pyrazol-6-yl)pyridin-2-yl)morpholine] | 100 to 300 nM | > 1000 nM | > 10000 nM | 1000 to 10000 nM | > 10000 nM | 100 to 300 nM |
| CN1CCN(Cc2ccc(-c3cc4c(s3)Cc3c(-c5ccc6cn[nH]c6c5)n[nH]c3-4)cc2)CC1 [Compound 83, 3-(1H-indazol-6-yl)-6-(4-((4-methylpiperazin-1-yl)methyl)phenyl)-1,4-dihydrothieno[2′,3′:4,5] cyclopenta[1,2-c]pyrazole] | < 30 nM | 300 to 1000 nM | > 10000 nM | > 10000 nM | > 10000 nM | 1 to 10 nM |
| CN1CCN(Cc2ccc(-c3cc4c(s3)Cc3c(-c5ccc6cnn(C)c6c5)n[nH]c3-4)cc2)CC1 [Compound 84, 3-(1-methyl-1H-indazol-6-yl)-6-(4-((4-methylpiperazin-1-yl)methyl)phenyl)-1,4-dihydrothieno [2′,3′:4,5]cyclopenta [1,2-c]pyrazole] | < 30 nM | > 1000 nM | > 10000 nM | > 10000 nM | > 10000 nM | 1 to 10 nM |
| CN1CCN(c2ccc(-c3cc4c(s3)Cc3c(-c5ccc6cnn(C)c6c5)n[nH]c3-4)cn2)CC1 [Compound 85, 3-(1-methyl-1H-indazol-6-yl)-6-(6-(4-methyl-piperazin-1-yl)pyridin-3-yl)-1,4-dihydrothieno [2′,3′:4,5]cyclopenta [1,2-c]pyrazole] | < 30 nM | 300 to 1000 nM | > 10000 nM | 1000 to 10000 nM | > 10000 nM | 1 to 10 nM |
| Cn1ncc2ccc(-c3n[nH]c4c3Cc3sc(-c5ccnc(Cl)c5)cc3-4)cc21 [Compound 86, 6-(2-chloropyridin-4-yl)-3-(1-methyl-1H-indazol-6-yl)-1,4-dihydrothieno [2′,3′:4,5]cyclopenta [1,2-c]pyrazole] | 30 to 100 nM | > 1000 nM | > 10000 nM | > 10000 nM | > 10000 nM | 10 to 30 nM |
| CN1CCN(c2cc(-c3cc4c(s3)Cc3c(-c5ccc6cnn(C)c6c5)n[nH]c3-4)ccn2)CC1 [Compound 87, 3-(1-methyl-1H-indazol-6-yl)-6-(2-(4-methyl-piperazin-1-yl)pyridin-4-yl)-1,4-dihydrothieno [2′,3′:4,5]cyclopenta [1,2-c]pyrazole] | 30 to 100 nM | 300 to 1000 nM | > 10000 nM | > 10000 nM | > 10000 nM | 1 to 10 nM |
| Cn1ncc2ccc(-c3n[nH]c4c3Cc3sc(-c5ccc(CN6CCOCC6)c(F)c5F)cc3-4)cc21 [Compound 88, 4-(2,3-difluoro-4-(3-(1-methyl-1H-indazol-6-yl)-1,4-dihydrothieno [2′,3′:4,5]cyclopenta [1,2-c]pyrazol-6-yl)benzyl)morpholine] | 300 to 1000 nM | > 1000 nM | > 10000 nM | > 10000 nM | > 10000 nM | 30 to 100 nM |
| Cn1nnc2ccc(-c3n[nH]c4c3Cc3sc(-c5ccc(CN6CCOCC6)cc5)cc3-4)cc21 [Compound 89, 4-(4-(3-(1-methyl-1H-benzo[d][1,2,3]triazol-6-yl)-1,4-dihydrothieno [2′,3′:4,5]cyclopenta [1,2-c]pyrazol-6-yl)benzyl)morpholine] | 30 to 100 nM | > 1000 nM | > 10000 nM | > 10000 nM | > 10000 nM | 1 to 10 nM |
| Cn1ncc2ccc(-c3n[nH]c4c3Cc3sc(-c5ccc(CN6CCOCC6)cc5OC(F)(F)F)cc3-4)cc21 [Compound 90, 4-(4-(3-(1-methyl-1H-indazol-6-yl)-1,4-dihydro-thieno[2′,3′:4,5]cyclopenta [1,2-c]pyrazol-6-yl)-3-(trifluoromethoxy)benzyl) morpholine] | 300 to 1000 nM | > 1000 nM | > 10000 nM | > 10000 nM | > 10000 nM | 100 to 300 nM |
